Results as given in patent US20240196897A1, “METHOD FOR CONTROLLING DISEASE-TRANSMITTING INSECTS USING CONDENSED HETEROCYCLIC COMPOUND” (SUMITOMO CHEMICAL COMPANY, LIMITED, priority 2021, published 2024).

How the values were obtained:
[1] = tested on: Argentine worker ants (Linepithema humile); assay: Aerosol spray test on adult Argentine worker ants, moribund and mortal rates; format: in vivo; details: aerosol per Formulation Example 2 (0.1 part compound), from height 60 cm, ten adult workers, seven days after spraying
Description: (§1) The internal pressure of the container at 20° C. of the aerosols thus fabricated was 0.5 MPa, the spray amount was 3 g/5 seconds, and the representative particle size (XR value) was 14 to 15 μm.
In a plastic container (diameter: 10 cm, height: 4.5 cm) lined with a filter paper (diameter: 8.2 cm), ten adult Argentine worker ants (Linepithema humile) were released, and the plastic container was placed in the center of the bottom of a cylindrical chamber of 17.2 cm in diameter. From the height of 60 cm, the aerosol containing each compound listed in Table 2 which was fabricated according to the method mentioned in Formulation Example 2 was sprayed with a spray time of 0.34 second or 0.68 second and a spray amount of about 400 mg or 200 mg. After a lapse of seven days from spraying, the number of dead and moribund individuals was examined, and moribund and mortal rates (%) were determined by the equation 2 below. Dead individuals are completely immobile individuals, and moribund individuals are individuals who cannot get up when turned on their backs.
Moribund and mortal rates (%)={(number of dead individuals+number of moribund individuals)/number of tested individuals}×100 (Equation 2)

[2] = tested on: German cockroaches (Blattella germanica); assay: Aerosol spray test on adult German cockroaches, moribund and mortal rates; format: in vivo; details: aerosol per Formulation Example 2 (0.1 part compound); spray time 1.35 seconds, spray amount about 800 mg, from height 50 cm; ten adults; one day after spraying
Description: as §1
In a plastic container (diameter: 12.4 cm, height: 10.2 cm), ten adult German cockroaches (Blattella germanica) (five males and five females each) were released, and the plastic container was placed in the center of the bottom of a cylindrical chamber of 17.2 cm in diameter. From the height of 50 cm, the aerosol containing each compound listed in Table 2 which was fabricated according to the method mentioned in Formulation Example 2 was sprayed with a spray time of 1.35 seconds and a spray amount of about 800 mg. After a lapse of one day from spraying, the number of dead and moribund individuals was examined, and moribund and mortal rates (%) were determined by the equation 1 below. Dead individuals are completely immobile individuals, and moribund individuals are individuals who cannot get up when turned on their backs.
Moribund and mortal rates (%)={(number of dead individuals+number of moribund individuals)/number of tested individuals}×100 (Equation 1)

Compound	Moribund and mortal rates (%) after seven days ([1]; spray amount 200 mg) [%]	Moribund and mortal rates (%) after seven days ([1]; spray amount 400 mg) [%]	Moribund and mortal rates (%) after one day [2] [%]
CCS(=O)(=O)c1cc(C(F)(F)F)cnc1-c1nc2cc([S+]([O-])C(F)(F)F)ccc2o1 (stereo not drawn) [Comparative compound 1]	10	100	30
CCS(=O)(=O)c1cc(C(F)(F)F)cnc1-c1nc2cc(S(=O)(=O)C(F)(F)F)ccc2o1 [Comparative compound 2]	13	100	30
CCS(=O)(=O)c1cc(C)cnc1-c1nc2cc([S+]([O-])C(F)(F)F)ccc2o1 (stereo not drawn) [Comparative compound 3]	3	100	30
CCS(=O)(=O)c1cc(C)cnc1-c1nc2cc(S(=O)(=O)C(F)(F)F)ccc2o1 [Comparative compound 4]	10	100	15
CCS(=O)(=O)c1cc(C2CC2)cnc1-c1nc2cc([S+]([O-])C(F)(F)F)ccc2o1 (stereo not drawn) [Present compound A]	100	100	100
CCS(=O)(=O)c1cc(C2CC2)cnc1-c1nc2cc(S(=O)(=O)C(F)(F)F)ccc2o1 [Present compound B]	100	100	100
